# Laboratory results as given in patent US7550469B2, “Heterocyclic amide derivatives and their use as dopamine D3 receptor ligands” (Aventis Pharmaceuticals Inc., priority 2001, dated 2009).
# Where two headings read alike, the source gives them in different places.
# Molecular target: T1, cloned human dopamine D3 receptors (Homo sapiens, UniProt P35462)
# T1 construct: expressed in transfected cells; membrane homogenate
# Test: [N-Methyl-3H]Spiroperidol binding to cloned human dopamine D3 receptors (Protocol 1)
# Description: [N-Methyl-^3H]Spiroperidol Binding to Cloned Human Dopamine D3 Receptors
# This assay measures the in vitro activity of compounds on cloned human dopamine (D3) receptors and predicts the direct dopamine-blocking properties of putative neuropsychiatric agents at human dopamine D3 receptors.
# The D3 gene was isolated from a human striatal cDNA library (Stratagene). The gene was sequenced and sub-cloned into the expression vector RC/RSV (Invitrogen). CHO (Chinese Hamster Ovary) cells were stably transfected with 10 μg of the D3/RSV plasmid using the DOTAP method from Boehringer Mannheim and 72 clones that were G418 resistant were isolated. Using mRNA and binding displacement data a single high expressing clone was identified. This clone was then grown in large batches for the purpose of developing a 96 well format assay.
# • 1. One plate (10 cm) with approximately 2-3 million D3 cells per plate is incubated with 1 ml of Trypsin-EDTA at room temperature for ˜2 min or until cells have lifted off plates. Four ml of Ham's F12+10% Fetal Bovine Serum+1% Penicillin/Streptomycin+G418 (400 μg/ml) medium are added to resuspend cells and 1 ml of this is added to each large plate (15 cm) containing 19 ml of the-same medium as mentioned above. • 2. The 5 large plates are incubated at 37° C.+5% CO2 for ˜3 days or until the cells are confluent. • 3. After these plates are confluent, they are split into 10 large plates. Medium is aspirated off, 2 ml of Trypsin-EDTA are added to each plate and plates are incubated at RT for 2 min or until cells have lifted off the plate. Eight ml of the F12 medium (same medium as #1 above) are added to each plate (10 ml total) to resuspend the cells and 5 ml are transferred to the 2 new plates containing 15 ml of the F12 media. • 4. The 10 large plates are incubated at 37° C.+5% CO2 for ˜2 days or until the cells are confluent. • 5. The 10 large plates are split into 60 large plates (using Trypsin-EDTA as #3 except 4 ml of F12 medium are added to resuspend cells and 1 ml is aliquoted to 6 new plates containing 19 ml of F12 medium each). • 6. Plates are incubated at […]+5% CO2 for ˜3 days or until cell are confluent. • 7. The 60 large plates are then split into 60 roller bottles (100-150 million cells/bottle). Medium is aspirated off, 2 ml of Trypsin-EDTA are added to each plate and incubated at RT for ˜2 minutes or until cells have lifted off plates. Eight ml of F12 medium are added to each plate to resuspend cells and the entire 10 ml are added to 1 roller bottle containing 90 ml of the F12 medium. • 8. The 60 roller bottles are immediately placed on their sides and transferred to the roller bottle incubator. They are incubated at 37° C.+5% CO2 for ˜3-5 days. Cells are spun at 30-40% motor speed in the Forma incubator. • 9. Medium is poured off and cells are washed 2× in PBS. • 10. Cells are then scraped off in 20 ml of PBS and the bottles are rinsed again with 5 ml of PBS to remove any remaining cells. Cells are stored on ice before membrane preparation. • 11. The yield for 60 D3 roller bottles has varied from ˜260-500 mg. • Note: All tissue culture reagents are from Gibco-BRL. C. Membrane Preparation
# The cells are harvested into 250 ml centrifuge tubes with 100 volumes of cold phosphate buffered saline (PBS) and spun down (1200×G for 10 min at 4° C.). The medium is removed and 100 ml PBS are added to each centrifuge tube, cells are resuspend and spun down again. The PBS is removed and the final pellet is homogenized in an appropriate volume of 10% DMSO with a polytron on ice at a medium setting.
# 1. 0.5M Tris Buffer, pH 7.7 • a) 44.4 g Tris HCl 26.5 g Tris Base q.s. to 1 Liter (0.5 M Tris buffer, pH 7.7 at 37° C.) • b) make a 1:10 dilution in distilled H2O (0.05 M. Tris buffer, pH 7.7) 2. Tris Buffer Containing Physiological Salts • a) Stock buffer • NaCl 7.014 g • KCl 0.372 g • CaCl2 0.222 g • MgCl2 0.204 g • q.s. To 100 ml with 0.5 M. Tris Buffer • b) Dilute 1:10 in distilled H2O […]
# [1] = the 13th table, unit inferred, read-out: D3Ki
# T1 sequence (P35462 whole entry): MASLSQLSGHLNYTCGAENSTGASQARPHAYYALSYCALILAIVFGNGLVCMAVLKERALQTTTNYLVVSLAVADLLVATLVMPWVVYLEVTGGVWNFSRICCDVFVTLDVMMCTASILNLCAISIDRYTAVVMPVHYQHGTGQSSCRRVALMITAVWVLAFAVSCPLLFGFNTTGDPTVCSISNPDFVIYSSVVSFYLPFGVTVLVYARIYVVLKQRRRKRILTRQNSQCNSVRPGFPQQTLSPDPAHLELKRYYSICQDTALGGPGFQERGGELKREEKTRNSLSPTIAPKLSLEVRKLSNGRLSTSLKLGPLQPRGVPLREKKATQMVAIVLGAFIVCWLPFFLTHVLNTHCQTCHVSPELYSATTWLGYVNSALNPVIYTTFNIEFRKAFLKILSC
Ki [1] [nM],Ki (read-out: D3K1) [nM],Compound
8.3,–,O=C(NCCCCN1CCCN(c2csc3cc(F)ccc23)CC1)c1cc(Cl)cc(Cl)c1 [S981848]
5.03,–,O=C(NCCCCN1CCCN(c2csc3cc(F)ccc23)CC1)c1cc(F)cc(F)c1 [S981849]
12.8,–,O=C(Cc1ccc(Cl)cc1)NCCCCN1CCCN(c2csc3cc(F)ccc23)CC1 [S982509]
12,–,CS(=O)(=O)c1ccc(CC(=O)NCCCCN2CCCN(c3csc4cc(F)ccc34)CC2)cc1 [S982511]
5.8,–,O=C(Cc1ccccc1Br)NCCCCN1CCCN(c2csc3cc(F)ccc23)CC1 [S982512]
0.132,–,CC1(c2ccc(C(=O)NCCCCN3CCCN(c4csc5cc(F)ccc45)CC3)cc2)NC(=O)NC1=O (stereo not drawn) [S982513]
1.4,–,O=C(NCCCCN1CCCN(c2csc3cc(F)ccc23)CC1)c1cccc2c1-c1ccccc1C2=O [S982536]
0.51,–,O=C(NCCCCN1CCCN(c2csc3cc(F)ccc23)CC1)c1ccc2c(c1)C(=O)c1ccccc1-2 [S982538]
1.2,–,O=C(NCCCCN1CCCN(c2csc3cc(F)ccc23)CC1)c1cc(Cl)ccc1[N+](=O)[O-] [S982540]
31.5,–,O=C(NCCCCCN1CCCN(c2csc3cc(F)ccc23)CC1)c1cccc(Cl)c1 [S984486]
31.8,–,COc1cc(OC)cc(C(=O)NCCCCCN2CCCN(c3csc4cc(F)ccc34)CC2)c1 [S984487]
41.5,–,O=C(NCCCCCN1CCCN(c2csc3cc(F)ccc23)CC1)c1cccc2ccccc12 [S984489]
54,–,O=C(NCCCCCN1CCCN(c2csc3cc(F)ccc23)CC1)c1cccc(C(F)(F)F)c1 [S984491]
11.6,–,O=C(NCCCCCN1CCCN(c2csc3cc(F)ccc23)CC1)c1cc2ccccc2s1 [S984494]
26.2,–,O=C(NCCCCCN1CCCN(c2csc3cc(F)ccc23)CC1)c1cccc2cc[nH]c12 [S984495]
8.44,–,CS(=O)(=O)c1sc(C(=O)NCCCCCN2CCCN(c3csc4cc(F)ccc34)CC2)c2c1CCC=C2 [S984496]
49.3,–,O=C(NCCCCCN1CCCN(c2csc3cc(F)ccc23)CC1)c1cnc(-c2cccnc2)s1 [S984497]

Ki [1] [nM],Ki (read-out: D3K1) [nM],Compound
28.5,–,O=C(NCCCCCN1CCCN(c2csc3cc(F)ccc23)CC1)c1sccc1-n1cccc1 [S984499]
15.8,–,O=C(NCCCCCN1CCCN(c2csc3cc(F)ccc23)CC1)c1ccc(-c2ccccn2)s1 [S984501]
13,–,COc1ccc2[nH]c(C(=O)NCCCCCN3CCCN(c4csc5cc(F)ccc45)CC3)cc2c1 [S984505]
33.4,–,Cn1c(C(=O)NCCCCCN2CCCN(c3csc4cc(F)ccc34)CC2)cc2ccccc21 [S984506]
34.8,–,O=C(NCCCCCN1CCCN(c2csc3cc(F)ccc23)CC1)c1cccc2[nH]ccc12 [S984508]
11.9,–,O=C(NCCCCCN1CCCN(c2csc3cc(F)ccc23)CC1)c1ccc2[nH]ccc2c1 [S984509]
25.4,–,O=C(NCCCCCN1CCCN(c2csc3cc(F)ccc23)CC1)c1n[nH]c2ccccc12 [S984511]
23.8,–,O=C(NCCCCCN1CCCN(c2csc3cc(F)ccc23)CC1)c1ccc(OC(F)(F)F)cc1 [S9894488]
191,–,O=C(NCCCCN1CCC(c2noc3ccsc23)CC1)c1ccc2ccccc2c1 [compound 81514]
–,5.77,O=C(NCCCCN1CCN(c2csc3cc(C(F)(F)F)ccc23)CC1)c1cccs1 [compound 811708]
–,35,O=C(NCCCCN1CCN(c2c(Cl)sc3cc(F)ccc23)CC1)C(F)(F)F [compound 814854]
–,5.4,CCOc1ccc(C(=O)NCCCCN2CCN(c3c(Cl)sc4cc(F)ccc34)CC2)cc1 [compound 815052]
–,5.8,O=C(NCCCCN1CCN(c2c(Cl)sc3cc(F)ccc23)CC1)c1ccc(F)cc1F [compound 815053]
–,7.7,O=C(NCCCCN1CCN(c2c(Cl)sc3cc(F)ccc23)CC1)c1c(F)cc(F)cc1F [compound 815054]
–,12.3,O=C(NCCCCN1CCN(c2c(Cl)sc3cc(F)ccc23)CC1)c1sc2ccccc2c1Cl [compound 815057]
–,13.8,O=C(NCCCCN1CCN(c2c(Cl)sc3cc(F)ccc23)CC1)c1ccc(-c2ccccc2)cc1 [compound 815059]

# Continued, molecule first:
Compound,Ki [1] [nM],Ki (read-out: D3K1) [nM]
COc1ccc(C(=O)NCCCCN2CCCN(c3csc4cc(F)ccc34)CC2)cc1 [S981845],1.01,–
O=C(NCCCCN1CCCN(c2csc3cc(F)ccc23)CC1)c1ccc(F)cc1 [S981846],26.9,–
O=C(/C=C/c1ccccc1)NCCCCN1CCCN(c2csc3cc(F)ccc23)CC1 [S981850],0.489,–
O=C(NCCCCN1CCCN(c2csc3cc(F)ccc23)CC1)c1ccccc1I [S981851],2.72,–
O=C(Cc1ccc(C(F)(F)F)cc1)NCCCCN1CCCN(c2csc3cc(F)ccc23)CC1 [S982508],40.9,–
COc1cccc(CC(=O)NCCCCN2CCCN(c3csc4cc(F)ccc34)CC2)c1 [S982510],5.9,–
O=C(Cc1ccccc1F)NCCCCN1CCCN(c2csc3cc(F)ccc23)CC1 [S982514],0.59,–
O=C(NCCCCN1CCCN(c2csc3cc(F)ccc23)CC1)c1cc([N+](=O)[O-])cc([N+](=O)[O-])c1 [S982535],5.3,–
O=C(NCCCCN1CCCN(c2csc3cc(F)ccc23)CC1)c1ccc2c(c1)S(=O)(=O)c1ccccc1C2=O [S982539],0.8,–
O=C(NCCCCCN1CCCN(c2csc3cc(F)ccc23)CC1)c1c2ccccc2cc2ccccc12 [S982542],57,–
O=C(NCCCCCN1CCCN(c2csc3cc(F)ccc23)CC1)c1cccs1 [S984485],31.6,–
O=C(NCCCCCN1CCCN(c2csc3cc(F)ccc23)CC1)c1ccc2ccccc2c1 [S984490],15.5,–
COc1ccccc1C(=O)NCCCCCN1CCCN(c2csc3cc(F)ccc23)CC1 [S984492],34.7,–
O=C(NCCCCCN1CCCN(c2csc3cc(F)ccc23)CC1)c1cccc(F)c1 [S984493],25.9,–
O=C(NCCCCCN1CCCN(c2csc3cc(F)ccc23)CC1)c1csnn1 [S984498],39.5,–
O=C(NCCCCCN1CCCN(c2csc3cc(F)ccc23)CC1)c1cc2sccc2s1 [S984502],6.41,–
Cc1nn(C)c2sc(C(=O)NCCCCCN3CCCN(c4csc5cc(F)ccc45)CC3)cc12 [S984503],10.2,–
O=C(NCCCCCN1CCCN(c2csc3cc(F)ccc23)CC1)c1cc2ccccc2[nH]1 [S984504],17.1,–
O=C(NCCCCCN1CCCN(c2csc3cc(F)ccc23)CC1)c1c[nH]c2ccccc12 [S984507],62,–
O=C(NCCCCCN1CCCN(c2csc3cc(F)ccc23)CC1)c1ccc2cc[nH]c2c1 [S984510],10.1,–
O=C(NCCCCN1CCCN(c2csc3cc(C(F)(F)F)ccc23)CC1)c1cc2ccccc2o1 [S984513],19,–
O=C(NCCCCN1CCCN(c2csc3cc(F)ccc23)CC1)c1ccc(C(F)(F)F)cc1 [S9818147],30.8,–
COc1cc(OC)cc(C(=O)NCCCCN2CCCN(c3csc4cc(F)ccc34)CC2)c1 [compound 82251],10.9,–
CC(C)C(=O)NCCCCN1CCN(c2csc3cc(C(F)(F)F)ccc23)CC1 [compound 811700],–,42.1
O=C(NCCCCN1CCN(c2c(Cl)sc3cc(F)ccc23)CC1)c1ccc2c(c1)OCO2 [compound 815055],–,3.5
O=C(NCCCCN1CCN(c2c(Cl)sc3cc(F)ccc23)CC1)c1cccs1 [compound 815058],–,4.3
O=C(NCCCCN1CCN(c2c(Cl)sc3cc(F)ccc23)CC1)c1ccc(Cl)cc1 [compound 815060],–,6.2
